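Cultured in 96-well plates, cells were exposed to test compound for 48 hours across five concentrations. At the GI50, growth is halved. TGI: total growth inhibition.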
Experiments:
Assay in all cases: growth of human tumour cells (NCI), 48 h
BT-549 breast = system: BT-549 breast
HOP-92 NSCLC = system: HOP-92 NSCLC
U251 CNS = system: U251 CNS
UACC-62 melanoma = system: UACC-62 melanoma
MCF7 breast = system: MCF7 breast
OVCAR-4 ovarian = system: OVCAR-4 ovarian
SF-539 CNS = system: SF-539 CNS
EKVX NSCLC = system: EKVX NSCLC
SK-OV-3 ovarian = system: SK-OV-3 ovarian
M14 melanoma = system: M14 melanoma
MDA-MB-435 = system: MDA-MB-435
OVCAR-5 ovarian = system: OVCAR-5 ovarian
NCI-H522 lung = system: NCI-H522 lung
SK-MEL-28 melanoma = system: SK-MEL-28 melanoma
SNB-19 CNS = system: SNB-19 CNS
SF-295 CNS = system: SF-295 CNS
T-47D breast = system: T-47D breast
IGROV1 ovarian = system: IGROV1 ovarian
SW-620 colon = system: SW-620 colon
SN12C renal = system: SN12C renal
OVCAR-3 ovarian = system: OVCAR-3 ovarian
MOLT-4 leukemia = system: MOLT-4 leukemia
HS 578T breast = system: HS 578T breast
SK-MEL-5 melanoma = system: SK-MEL-5 melanoma
NCI-H226 lung = system: NCI-H226 lung
LOX IMVI melanoma = system: LOX IMVI melanoma
A549 NSCLC = system: A549 NSCLC
HOP-62 NSCLC = system: HOP-62 NSCLC
TK-10 renal = system: TK-10 renal
RPMI-8226 leukemia = system: RPMI-8226 leukemia
HT29 colon = system: HT29 colon
NCI-H23 lung = system: NCI-H23 lung
UACC-257 melanoma = system: UACC-257 melanoma
SNB-75 CNS = system: SNB-75 CNS
SF-268 CNS = system: SF-268 CNS
MDA-MB-468 breast = system: MDA-MB-468 breast
HCT-116 colon = system: HCT-116 colon
RXF 393 renal = system: RXF 393 renal
NCI-H460 lung = system: NCI-H460 lung
A498 renal = system: A498 renal
PC-3 prostate = system: PC-3 prostate
SR leukemia = system: SR leukemia
UO-31 renal = system: UO-31 renal
HCT-15 colon = system: HCT-15 colon
COLO 205 colon = system: COLO 205 colon
786-0 renal = system: 786-0 renal
DU-145 prostate = system: DU-145 prostate
MALME-3M melanoma = system: MALME-3M melanoma
CCRF-CEM leukemia = system: CCRF-CEM leukemia
K-562 leukemia = system: K-562 leukemia
OVCAR-8 ovarian = system: OVCAR-8 ovarian
CAKI-1 renal = system: CAKI-1 renal
SK-MEL-2 melanoma = system: SK-MEL-2 melanoma
HCC-2998 colon = system: HCC-2998 colon
HL-60(TB) leukemia = system: HL-60(TB) leukemia
ACHN renal = system: ACHN renal
MDA-MB-231 breast = system: MDA-MB-231 breast
KM12 colon = system: KM12 colon
NCI/ADR-RES ovarian = system: NCI/ADR-RES ovarian

## COc1cc2c(cc1OC)CN(CCCCOc1cc(O)c3c(=O)cc(-c4ccccc4)oc3c1)CC2
BT-549 breast
  GI50: 8.53 µM
  TGI: 22.9 µM
HOP-92 NSCLC
  GI50: 8.92 µM
  TGI: > 100 µM
U251 CNS
  GI50: 11.9 µM
  TGI: 56.6 µM
UACC-62 melanoma
  GI50: 2.67 µM
  TGI: 7.92 µM
MCF7 breast
  GI50: 6.06 µM
  TGI: 35.4 µM
OVCAR-4 ovarian
  GI50: 4.01 µM
  TGI: 91.5 µM
SF-539 CNS
  GI50: 10.4 µM
  TGI: 23.8 µM
EKVX NSCLC
  GI50: 71 µM
  TGI: > 100 µM
SK-OV-3 ovarian
  GI50: 15.7 µM
  TGI: 50.8 µM
M14 melanoma
  GI50: 2.96 µM
  TGI: 11.3 µM
MDA-MB-435
  GI50: 13.2 µM
  TGI: 41.9 µM
OVCAR-5 ovarian
  GI50: 40.7 µM
  TGI: > 100 µM
NCI-H522 lung
  GI50: 12.5 µM
  TGI: 29.4 µM
SK-MEL-28 melanoma
  GI50: 5.32 µM
  TGI: 19.6 µM
SNB-19 CNS
  GI50: 28.5 µM
  TGI: > 100 µM
SF-295 CNS
  GI50: 10.7 µM
  TGI: 25 µM
T-47D breast
  GI50: 9.01 µM
  TGI: 65.9 µM
IGROV1 ovarian
  GI50: 26.4 µM
  TGI: > 100 µM
SW-620 colon
  GI50: 11.3 µM
  TGI: 35.4 µM
SN12C renal
  GI50: 6.25 µM
  TGI: > 100 µM
OVCAR-3 ovarian
  GI50: 13.1 µM
  TGI: 50.3 µM
MOLT-4 leukemia
  GI50: 3.09 µM
  TGI: 19.6 µM
HS 578T breast
  GI50: 11.6 µM
  TGI: 52 µM
SK-MEL-5 melanoma
  GI50: 11 µM
  TGI: 23.5 µM
NCI-H226 lung
  GI50: 10.2 µM
  TGI: > 100 µM
LOX IMVI melanoma
  GI50: 4.51 µM
  TGI: 15.3 µM
A549 NSCLC
  GI50: 16.1 µM
  TGI: > 100 µM
HOP-62 NSCLC
  GI50: 22.2 µM
  TGI: > 100 µM
TK-10 renal
  GI50: 57.4 µM
  TGI: > 100 µM
RPMI-8226 leukemia
  GI50: 4.29 µM
  TGI: 24.3 µM
HT29 colon
  GI50: 3.34 µM
  TGI: 12.4 µM
NCI-H23 lung
  GI50: 24.5 µM
  TGI: > 100 µM
UACC-257 melanoma
  GI50: 5.28 µM
  TGI: 18.6 µM
SNB-75 CNS
  GI50: 4 µM
  TGI: 45.4 µM
SF-268 CNS
  GI50: 10.6 µM
  TGI: > 100 µM
MDA-MB-468 breast
  GI50: 2.07 µM
  TGI: 14 µM
HCT-116 colon
  GI50: 3.42 µM
  TGI: 13.4 µM
RXF 393 renal
  GI50: 1.69 µM
  TGI: 10.9 µM
NCI-H460 lung
  GI50: 7.07 µM
  TGI: 41.5 µM
A498 renal
  GI50: 25.8 µM
  TGI: 63.6 µM
PC-3 prostate
  GI50: 6.44 µM
  TGI: > 100 µM
SR leukemia
  GI50: 1.85 µM
  TGI: 4.67 µM
UO-31 renal
  GI50: 10.3 µM
  TGI: 26.4 µM
HCT-15 colon
  GI50: 6.7 µM
  TGI: 31.8 µM
COLO 205 colon
  GI50: 3.27 µM
  TGI: 12.6 µM
786-0 renal
  GI50: 3.53 µM
  TGI: 14.4 µM
DU-145 prostate
  GI50: 32.1 µM
  TGI: > 100 µM
MALME-3M melanoma
  GI50: 2.95 µM
  TGI: 8.16 µM
CCRF-CEM leukemia
  GI50: 5.17 µM
  TGI: > 100 µM
K-562 leukemia
  GI50: 2.48 µM
  TGI: 10.8 µM
OVCAR-8 ovarian
  GI50: 18.9 µM
  TGI: > 100 µM
CAKI-1 renal
  GI50: 13.1 µM
  TGI: 97.5 µM
SK-MEL-2 melanoma
  GI50: 14 µM
  TGI: 40.1 µM
HCC-2998 colon
  GI50: 7.91 µM
  TGI: 22.1 µM
HL-60(TB) leukemia
  GI50: 2.32 µM
  TGI: 13.8 µM
ACHN renal
  GI50: 8.74 µM
  TGI: > 100 µM
MDA-MB-231 breast
  GI50: 10.6 µM
  TGI: 44.8 µM
KM12 colon
  GI50: 10.3 µM
  TGI: 36.9 µM

## O=C(c1ccc(O)cc1)C1[C@H](c2ccc(Cl)cc2)[C@@H](c2ccccc2)NC12C(=O)Nc1ccc(Br)cc12 (some centres undefined)
BT-549 breast
  GI50: 16.3 µM
  TGI: 30 µM
HOP-92 NSCLC
  GI50: 14.2 µM
  TGI: 28.6 µM
U251 CNS
  GI50: 15 µM
  TGI: 29.6 µM
UACC-62 melanoma
  GI50: 11.8 µM
  TGI: 24.1 µM
MCF7 breast
  GI50: 12.2 µM
  TGI: 25.7 µM
OVCAR-4 ovarian
  GI50: 14.3 µM
  TGI: 28.1 µM
SF-539 CNS
  GI50: 14.7 µM
  TGI: 28 µM
EKVX NSCLC
  GI50: 11 µM
  TGI: 23.2 µM
SK-OV-3 ovarian
  GI50: 14.9 µM
  TGI: 28.3 µM
M14 melanoma
  GI50: 12.8 µM
  TGI: 25.5 µM
MDA-MB-435
  GI50: 16.2 µM
  TGI: 31.9 µM
OVCAR-5 ovarian
  GI50: 13.7 µM
  TGI: 26.6 µM
NCI-H522 lung
  GI50: 13.3 µM
  TGI: 26.6 µM
SK-MEL-28 melanoma
  GI50: 16.3 µM
  TGI: 30 µM
SNB-19 CNS
  GI50: 14.6 µM
  TGI: 27.7 µM
SF-295 CNS
  GI50: 12.4 µM
  TGI: 25 µM
T-47D breast
  GI50: 11.7 µM
  TGI: 24.1 µM
IGROV1 ovarian
  GI50: 12.1 µM
  TGI: 24.8 µM
SW-620 colon
  GI50: 14.4 µM
  TGI: 28.1 µM
SN12C renal
  GI50: 14.7 µM
  TGI: 28.4 µM
OVCAR-3 ovarian
  GI50: 13.8 µM
  TGI: 28 µM
MOLT-4 leukemia
  GI50: 11.6 µM
  TGI: 32.2 µM
HS 578T breast
  GI50: 15.2 µM
  TGI: 38.2 µM
SK-MEL-5 melanoma
  GI50: 15.7 µM
  TGI: 29.1 µM
NCI/ADR-RES ovarian
  GI50: 16.6 µM
  TGI: 31.5 µM
NCI-H226 lung
  GI50: 13.6 µM
  TGI: 28.9 µM
LOX IMVI melanoma
  GI50: 14 µM
  TGI: 27 µM
A549 NSCLC
  GI50: 11.8 µM
  TGI: 25.9 µM
HOP-62 NSCLC
  GI50: 13.9 µM
  TGI: 27.5 µM
TK-10 renal
  GI50: 13.8 µM
  TGI: 27 µM
RPMI-8226 leukemia
  GI50: 23.6 µM
  TGI: 69.2 µM
HT29 colon
  GI50: 14 µM
  TGI: 27.9 µM
NCI-H23 lung
  GI50: 15.1 µM
  TGI: 29.2 µM
UACC-257 melanoma
  GI50: 14.8 µM
  TGI: 28.6 µM
SNB-75 CNS
  GI50: 10.8 µM
  TGI: 26.2 µM
SF-268 CNS
  GI50: 14.4 µM
  TGI: 31 µM
MDA-MB-468 breast
  GI50: 8.82 µM
  TGI: 21.3 µM
HCT-116 colon
  GI50: 12.6 µM
  TGI: 25.1 µM
RXF 393 renal
  GI50: 13 µM
  TGI: 26.3 µM
NCI-H460 lung
  GI50: 14.7 µM
  TGI: 28.8 µM
A498 renal
  GI50: 13.8 µM
  TGI: 27 µM
PC-3 prostate
  GI50: 12.3 µM
  TGI: 25.9 µM
SR leukemia
  GI50: 10.6 µM
  TGI: 26.2 µM
UO-31 renal
  GI50: 10.6 µM
  TGI: 22.4 µM
HCT-15 colon
  GI50: 13.6 µM
  TGI: 26.8 µM
COLO 205 colon
  GI50: 15.8 µM
  TGI: 30 µM
786-0 renal
  GI50: 1.64 µM
  TGI: 3 µM
DU-145 prostate
  GI50: 16.6 µM
  TGI: 31.6 µM
MALME-3M melanoma
  GI50: 15.1 µM
  TGI: 28.8 µM
CCRF-CEM leukemia
  GI50: 18.9 µM
  TGI: 45 µM
K-562 leukemia
  GI50: 14.3 µM
  TGI: 43.5 µM
OVCAR-8 ovarian
  GI50: 15.5 µM
  TGI: 30.7 µM
CAKI-1 renal
  GI50: 10.8 µM
  TGI: 23.4 µM
SK-MEL-2 melanoma
  GI50: 14.4 µM
  TGI: 28.3 µM
HCC-2998 colon
  GI50: 14.1 µM
  TGI: 27.3 µM
HL-60(TB) leukemia
  GI50: 20.4 µM
  TGI: 46.5 µM
ACHN renal
  GI50: 12.6 µM
  TGI: 25.2 µM
MDA-MB-231 breast
  GI50: 13.1 µM
  TGI: 26 µM
KM12 colon
  GI50: 13.4 µM
  TGI: 29.5 µM

Source: PubChem BioAssay (NCI)
